Assay results taken from patent publication US4399139A, “5,6-Dihydro-11-alkylene-morphanthridin-6-ones, their pharmaceutical compositions and method of use” (BASF Aktiengesellschaft, priority 1981, dated 1983).

Legend:
[1] = system: pupil diameter; test: Anti-cholinergic side-effect: mydriasis (pupil diameter) in the rat; format: in vivo, Sprague-Dawley rats; conditions: administered subcutaneously, 1 hour, dose which increases the pupil diameter by 2 mm
Description: (§1) To determine anti-cholinergic side-effects (mydriasis, inhibition of salivation), groups of from 5 to 10 female Sprague-Dawley rats (160-200 g) are given the test substance subcutaneously. After 1 hour, the pupil diameter is measured. The animals are then given 0.6 mg/kg of carbachol intraperitoneally. After 5 minutes, the saliva secreted as a result of stimulation by carbachol is blotted up with 4 cm wide strips of universal indicator paper (from Merck). The surface area of the paper colored blue by the alkaline saliva serves as a measure of the salivary secretion. The test substance is taken to inhibit salivary secretion if the blue area of the paper is more than 50% smaller than in the case of the controls. Evaluation of the linear relationships between the logarithms of the dose and the frequency of inhibition of salivation is carried out alternatively by Probit analysis. The ED 50 is taken to be the dose at which the relative frequency of inhibition of salivation is 50%.
(§2) If there is a mydriatic effect, there is a linear regression between the logarithm of the dose and the increase in pupil diameter in mm, from which the ED 2 mm, ie. the dose which increases the pupil diameter by 2 mm, is calculated.

[2] = Anti-cholinergic side-effect: inhibition of carbachol-stimulated salivation in the rat; parameters: species or system Sprague-Dawley rats; conditions: in vivo, sc; for ED50 at 1 h: administered subcutaneously, carbachol 0.6 mg/kg intraperitoneally after 1 hour, read-out: Salivation-inhibiting action, ED 50; for selectivity ratio: subcutaneously, ratio of salivation-inhibiting to secretion-inhibiting dose, read-out: Salivation-inhibiting action, ED 50/ED 0.75
Description: as §1, with “After” for “To determine anti-cholinergic side-effects (mydriasis, inhibition of salivation), groups of from 5 to 10 female Sprague-Dawley rats (160-200 g) are given the test substance subcutaneously. After”, “analysis.” for “analysis. The ED 50 is taken to be the dose at which the relative frequency of inhibition of salivation is 50%.”

[3] = system: ulcerous lesions; test: Anti-ulcerogenic effect in the rat (reserpine/indomethacin/cold induced ulcers); format: in vivo, Sprague-Dawley rats; conditions: for ED50: po, 6 h, administered orally, dose which reduces the ulcerated surface area by 50%, read-out: Anti-ulcerogenic effect, ED 50%; for Anti-ulcerogenic effect, R.E. (relative effectiveness): orally, relative to pirenzepine = 1.0
Description: To examine the anti-ulcerogenic effect, groups of 10 female Sprague-Dawley rats (weighing 160-180 g) are given 1 mg/kg of reserpine intraperitoneally, and are then left for 18 hours without food (but with water ad libitum). After this time, the animals are given 21.5 mg/kg of indomethacin intraperitoneally and the test substance orally; they are then kept for 6 hours at 8° C., after which they are killed. The stomachs are removed and the surface area of ulcerous lesions is determined.

[4] = system: gastric acid secretion; conditions: for ED (pH increase of 0.75): Rattus norvegicus, sc, 1 h, read-out: Inhibition of gastric acid secretion, ED 0.75; for Inhibition of gastric acid secretion, R.E. (relative effectiveness): rat, subcutaneously, relative to pirenzepine = 1.0
Description: The inhibition of gastric acid secretion manifests itself in a rise in the pH of the gastric mucosa. It is tested on groups of 5 conscious female Sprague-Dawley rats (160-180 g). The animals are kept without food (but with water ad libitum) for 48 hours and are then pretreated with varying doses of the test substances, administered subcutaneously. After 1 hour, they are narcotized with Na hexobarbital (46.4 mg/kg, given intravenously). A pH electrode (Philips Special Electrode, type CJP) is then introduced into the stomach and the pH at the surface of the gastric mucosa is measured (pH in the untreated animals is 1.40±0.02; N=200). The ED 0.75, ie. the dose which causes an increase in pH averaging 0.75, compared to the pH in the untreated control animals, is determined from the linear regression between logarithm of administered dose and increase in pH.

[5] = Anti-cholinergic side-effect: mydriasis (pupil diameter) in the rat; format: in vivo, Sprague-Dawley rats; conditions: in vivo, sc, subcutaneously, ratio of mydriatic to secretion-inhibiting dose, read-out: Mydriatic action, ED 2 mm / ED 0.75
Description: as §1, §2

Structure (SMILES) | Mydriatic action, ED 2 mm [1] [mg/kg] | ED50 at 1 h [2] [mg/kg] | ED50 [3] [mg/kg] | ED (pH increase of 0.75) [4] [mg/kg] | selectivity ratio [5] | selectivity ratio [2] | Anti-ulcerogenic effect, R.E. (relative effectiveness) [3] | Inhibition of gastric acid secretion, R.E. (relative effectiveness) [4]
CN1CCN(CC(=O)N2c3ccccc3C(=O)Nc3cccnc32)CC1 [Pirenzepine, 5,11-dihydro-11-[(4-methyl-piperazin-1-yl)-acethyl]-6H-pyrido-[2,3,b][1,4]-benzodiazepin-6-one, reference compound] | 1.6 | 2 | 6.5 | 0.086 | – | – | – | –
CN1CCN(C(=O)/C=C2/c3ccccc3NC(=O)c3ccccc32)CC1 [Example 1 cis, cis-11-(4-methyl-piperazin-1-yl)-carboxamidomethylene-5,6-dihydro-morphanthridin-6-one] | 198 | 50 | 1.7 | 0.032 | 6200 | 1600 | 3.8 | 2.7
CN1CCN(C(=O)C=C2c3ccccc3NC(=O)c3ccccc32)CC1 (mixture of isomers) [Example 1 cis/trans, cis,trans-11-(4-methyl-piperazin-1-yl)-carboxamidomethylene-5,6-dihydromorphanthridin-6-one] | > 215 | 99 | 2.1 | 0.055 | > 3900 | 1800 | 3.1 | > 1.6
